≈ marks a conversion by molar mass, not a printed value. Read-outs that look alike come from different tables or passages of the source.
System: Escherichia coli K12
Type: cell-based
[1] = K12, read-out: Minimum Inhibitory Concentration E. coli K12, M9 media
[2] = K12, read-out: Minimum Inhibitory Concentration E. coli K12, M9 plus 5 µg/mL PABA
[3] = K12, read-out: Minimum Inhibitory Concentration E. coli K12, M9 plus 20 µg/mL Methionine

| Compound | MIC [1] [µM] | MIC [2] [µM] | MIC [3] [µM] |
| --- | --- | --- | --- |
| Cc1cc(NS(=O)(=O)c2ccc(N)cc2)no1 [parent sulfonamide of 15, sulfamethoxazole] | 0.8 (≈ 0.203 µg/mL) | 263 | 1.5 |
| COc1cc(NS(=O)(=O)c2ccc(N)cc2)nc(OC)n1 [parent sulfonamide of 19, sulfadimethoxine] | 1.6 (≈ 0.497 µg/mL) | 537 | 3.4 |
| Nc1ccc(S(=O)(=O)c2ccc(N)cc2)cc1 [parent sulfonamide of 21, 4-[(4-aminobenzene)sulfonyl]aniline] | 25 (≈ 6.21 µg/mL) | > 934 | 50 |
| Nc1ccc(S(N)(=O)=O)cc1 [parent sulfonamide of 22, sulfanilamide] | 22 (≈ 3.79 µg/mL) | > 934 | 58 |
